Numbers after ± are expanded uncertainties.
Conditions: Liquid; pulse heating
`c1cc2c3c(cccc3c1)CC2` [acenaphthene] showed a Critical pressure of 3700 ± 110 kPa and a Critical temperature of 820 ± 8 K.
In the case of `c1ccc2c(c1)ccc1ccccc12` [phenanthrene], the Critical pressure is reported as 3250 ± 100 kPa and the Critical temperature is reported as 893 ± 9 K.
`c1ccc2c(c1)Cc1ccccc1-2` [fluorene] gave a Critical pressure of 3180 ± 100 kPa and a Critical temperature of 836 ± 8 K.
In the case of `c1cc2ccc3cccc4ccc(c1)c2c34` [pyrene], the Critical pressure is reported as 3030 ± 90 kPa and the Critical temperature is reported as 974 ± 10 K.
Compound `c1ccc2cc3ccccc3cc2c1` [anthracene] has a Critical pressure of 3170 ± 100 kPa and a Critical temperature of 894 ± 9 K.
